In patent publication US4640916A, “1,4-benzothiazine derivatives, compositions containing them and method of use” (priority 1984, dated 1987):
Where a name gives a salt, the structure may show the parent alone. Read-outs that look alike come from different tables or passages of the source.

Legend:
[1] = tested on: contraction of the aorta strip caused by KCl; experiment: Vasodilating action: inhibition of contraction of rabbit aorta strip caused by KCl; type: cell-based; conditions: Oryctolagus cuniculus, compound 10^-5 M, KCl 60 mM, 15 min pretreatment, read-out: Inhibitory percent against contraction, KCl
Procedure: (§1) A spiral strip of aorta of a rabbit (2-3 mm width, about 3 cm length) was allowed to equilibrate by hanging under 2 g force in a Krebs-Henseleit solution. The solution was saturated with a mixture gas of 97% O2 --3% CO2 which was warmed to 37° C. Inhibitory actions of compounds (10^-5 M) of this invention against contraction of the aorta strip caused by KCl (60 mM), norepinephrine (NE) (10^-6 M) or serotonin (5--HT) (10^-6 M), by treating the strip with a compound of this invention 15 minutes before the test, are shown in Table 1 as inhibitory percent.

[2] = tested on: contraction of the aorta strip caused by serotonin (5--HT); experiment: Vasodilating action: inhibition of contraction of rabbit aorta strip caused by serotonin (5-HT); type: cell-based; conditions: Oryctolagus cuniculus, compound 10^-5 M, 5-HT 10^-6 M, 15 min pretreatment, read-out: Inhibitory percent against contraction, 5-HT
Procedure: as §1

[3] = tested on: spontaneously hypertensive rats; experiment: Antihypertensive action in spontaneously hypertensive rats (tail-cuff); type: in vivo; conditions: 1 h after administration
Procedure: Male 12 to 13 weeks old spontaneously hypertensive rats with about 200 mm Hg of blood pressure were used in groups of 3 individuals. Mean arterial blood pressures of these animals were measured by the tail-cuff method, then the animals were orally given 3-60 mg/kg of each test compound of this invention as 2 ml of its suspension in gum arabic. Blood pressure measurements were made again one hour after administration of each test compound.

[4] = tested on: contraction of the aorta strip caused by norepinephrine (NE); experiment: Vasodilating action: inhibition of contraction of rabbit aorta strip caused by norepinephrine (NE); type: cell-based; conditions: Oryctolagus cuniculus, compound 10^-5 M, NE 10^-6 M, 15 min pretreatment, read-out: Inhibitory percent against contraction, NE
Procedure: as §1

[5] = tested on: contraction depending on intracellular Ca^++; experiment: Intracellular Ca++ antagonism: inhibition of phenylephrine contraction of aorta strip in Ca++-free EGTA solution; type: cell-based, rabbit; conditions: Oryctolagus cuniculus; compound 10^-6 M; phenylephrine 10^-6 M; Ca++ 0 mM, EGTA 5 mM; read-out: Inhibitory percent (contraction depending on intracellular Ca++)
Procedure: A spiral strip of aorta of a rabbit (2-3 mm width, about 3 cm length) was allowed to equilibrate by hanging under 2 g force in a Krebs-Henseleit solution. The solution was saturated with a mixture gas 97% O2 --3% CO2, which was warmed to 37° C. The strip was moved into another Krebs-Henseleit solution containing Ca^++ OmM and EGTA 5 mM. Five minutes later, phenylephrine (10^-6 M) was added on the solution. The resulting contraction of the strip was made as the index of the contraction depending on intracellular Ca^++.

Structure (SMILES) | inhibition at 10 µM [1] | inhibition at 10 µM [2] | Antihypertensive effect (difference of blood pressure before and after medication) ([3]; 60 mg/Kg oral) | inhibition at 10 µM [4] | Antihypertensive effect (difference of blood pressure before and after medication) ([3]; 30 mg/Kg oral) | inhibition at 1 µM [5] | inhibition at 10 µM ([4]; 0.25 h) | Antihypertensive effect (difference of blood pressure before and after medication) ([3]; 10 mg/Kg oral)
COc1ccccc1N1CCN(CCCC2Sc3cc(Cl)ccc3NC2=O)CC1 (stereo not shown) [Example 9] | 40% | 44% | 35 ΔmmHg | 100% | – | – | – | –
Cc1cc2c(cc1C)SC(CCCN1CCN(c3ccc(F)cc3)CC1)C(=O)N2 (stereo not shown) [Example 1, 2-[3-[4-(4-fluorophenyl)-1-piperazinyl]propyl]-6,7-dimethyl-2H-1,4-benzothiazin-3(4H)-one] | 50% | – | – | – | 35 ΔmmHg | 66% | 100% | –
O=C1Nc2ccccc2SC1CCN1CCN(c2ccc(F)cc2)CC1 (stereo not shown) [Example 26] | 60% | – | – | – | 26 ΔmmHg | – | 60% | –
Cc1cccc(N2CCN(CCCC3Sc4cccc(C)c4NC3=O)CC2)c1 (stereo not shown) [Example 18] | 50% | – | – | 100% | – | – | – | –
COc1ccccc1N1CCN(CCC2Sc3ccccc3NC2=O)CC1 (stereo not shown) [Example 28] | 15% | 100% | – | 100% | 29 ΔmmHg | – | – | –
Cc1cccc2c1NC(=O)C(CCCN1CCN(c3ccc(Cl)cc3)CC1)S2 (stereo not shown) [Example 15] | 40% | 20% | – | 100% | – | 30% | – | –
Cc1ccccc1N1CCN(CCCC2Sc3cccc(C)c3NC2=O)CC1 (stereo not shown) [Example 17] | 11% | – | – | 100% | 26 ΔmmHg | – | – | –
O=C1Nc2ccccc2SC1CCCN1CCN(c2ccc(F)cc2)CC1 (stereo not shown) [Example 3] | 53% | – | – | 100% | – | – | – | –
COc1ccccc1N1CCN(CCCC2Sc3cccc(C)c3NC2=O)CC1 (stereo not shown) [Example 16] | 33% | 70% | – | 100% | – | – | – | –
COc1ccc2c(c1)SC(CCCN1CCN(c3ccccc3OC)CC1)C(=O)N2 (stereo not shown) [Example 6] | 26% | 91% | – | 100% | – | – | – | 64 ΔmmHg
Cc1ccc2c(c1C)NC(=O)C(CCCN1CCN(c3ccc(F)cc3)CC1)S2 (stereo not shown) [Example 42] | – | – | – | – | 28 ΔmmHg | – | – | –
O=C1Nc2ccccc2SC1CCCN1CCN(c2ccccc2)CC1 (stereo not shown) [Example 2] | 70% | 97% | – | 100% | 43 ΔmmHg | – | – | –
COc1ccccc1N1CCN(CCCC2Sc3cccc(OC)c3NC2=O)CC1 (stereo not shown) [Example 4] | 18% | 12% | – | 100% | – | – | – | –
CCN1C(=O)C(CCN2CCN(c3ccccc3OC)CC2)Sc2ccccc21 (stereo not shown) [Example 36, 4-ethyl-2-[2-[4-(2-methoxyphenyl)-1-piperazinyl]ethyl]-2H-1,4-benzothiazin-3(4H)-one] | 15% | 100% | – | – | – | – | 100% | –
COc1ccccc1N1CCN(CCCC2Sc3cc(C)c(C)cc3NC2=O)CC1 (stereo not shown) [Example 23] | 40% | – | – | 100% | 48 ΔmmHg | – | – | –
Cc1cc(C)c2c(c1)SC(CCCN1CCN(c3ccc(F)cc3)CC1)C(=O)N2 (stereo not shown) [Example 11] | 70% | 67% | – | 95% | 49 ΔmmHg | 97% | – | –
O=C1Nc2ccccc2SC1CCCCN1CCN(c2ccc(F)cc2)CC1 (stereo not shown) [Example 38, 2-[4-[4-(4-fluorophenyl)-1-piperazinyl]butyl]-2H-1,4-benzothiazin-3(4H)-one] | 30% | – | – | – | 32 ΔmmHg | – | 100% | –
O=C1Nc2ccccc2SC1CCN1CCN(c2ccccc2)CC1 (stereo not shown) [Example 27] | 20% | 100% | – | 100% | – | – | – | –

Structure (SMILES) | inhibition at 10 µM [1] | inhibition at 10 µM [2] | Antihypertensive effect (difference of blood pressure before and after medication) ([3]; 60 mg/Kg oral) | inhibition at 10 µM [4] | Antihypertensive effect (difference of blood pressure before and after medication) ([3]; 30 mg/Kg oral) | inhibition at 1 µM [5] | inhibition at 10 µM ([4]; 0.25 h) | Antihypertensive effect (difference of blood pressure before and after medication) ([3]; 10 mg/Kg oral)
COc1ccc2c(c1)SC(CCCN1CCN(c3ccccc3)CC1)C(=O)N2 (stereo not shown) [Example 5] | 10% | 100% | – | 100% | – | – | – | 49 ΔmmHg
Cc1cccc2c1NC(=O)C(CCCN1CCN(c3cccc(Cl)c3)CC1)S2 (stereo not shown) [Example 14] | 50% | – | – | 100% | 26 ΔmmHg | 100% | – | –
Cc1ccc(N2CCN(CCCC3Sc4cccc(C)c4NC3=O)CC2)cc1 (stereo not shown) [Example 7] | 77% | – | – | 60% | – | – | – | –
O=C1Nc2cc(C(F)(F)F)ccc2SC1CCCN1CCN(c2ccc(F)cc2)CC1 (stereo not shown) [Example 10] | 45% | – | – | 100% | 33 ΔmmHg | – | – | –
O=C1Nc2c(ccc3c2CCCC3)SC1CCCN1CCN(c2ccc(F)cc2)CC1 (stereo not shown) [Example 47, 3-[3-[4-(4-fluorophenyl)-1-piperazinyl]propyl]-7,8,9,10-tetrahydro-1H-naphtho[2,1-b][1,4]thiazin-2(3H)-one.hydrochloride] | – | – | – | – | 35 ΔmmHg | – | – | –
COc1ccccc1N1CCN(CCCC2Sc3ccc(Cl)cc3NC2=O)CC1 (stereo not shown) [Example 8] | 34% | 18% | – | 100% | – | – | – | –
COc1ccc2c(c1)SC(CCN1CCN(c3ccccc3)CC1)C(=O)N2 (stereo not shown) [Example 29] | 15% | 73% | – | 96% | – | – | – | 38 ΔmmHg
COc1ccccc1N1CCN(CCCC2Sc3cc(C)cc(C)c3NC2=O)CC1 (stereo not shown) [Example 22] | 62% | 15% | – | 100% | 39 ΔmmHg | 100% | – | –
CCc1cccc2c1NC(=O)C(CCCN1CCN(c3ccc(F)cc3)CC1)S2 (stereo not shown) [Example 41] | – | – | – | – | 23 ΔmmHg | – | – | –
Cc1cccc2c1NC(=O)C(CCCN1CCN(c3ccccc3)CC1)S2 (stereo not shown) [Example 13] | 40% | 92% | 36 ΔmmHg | 100% | – | – | – | –
CN1C(=O)C(CCN2CCN(c3ccccc3)CC2)Sc2ccccc21 (stereo not shown) [Example 31] | 40% | 62% | – | 100% | – | – | – | –
COc1ccccc1N1CCN(CCCC2Sc3cc(C)ccc3NC2=O)CC1 (stereo not shown) [Example 21] | 32% | 56% | – | 100% | – | – | – | –
COc1cccc2c1NC(=O)C(CCCN1CCN(c3ccccc3)CC1)S2 (stereo not shown) [Example 24] | 20% | 66% | – | 100% | – | – | – | –
CN1C(=O)C(CCN2CCN(c3ccc(F)cc3)CC2)Sc2ccccc21 (stereo not shown) [Example 30, 2-[2-[4(4-fluorophenyl)-1-piperazinyl]ethyl]-4-methyl-2H-1,4-benzothiazin-3(4H)-one] | 42% | 100% | – | – | 40 ΔmmHg | – | 90% | –
COc1ccccc1N1CCN(CCC2Sc3ccccc3N(C)C2=O)CC1 (stereo not shown) [Example 32] | – | 88% | 30 ΔmmHg | 100% | – | – | – | –
O=C1Nc2cc3c(cc2SC1CCCN1CCN(c2ccc(F)cc2)CC1)OCO3 (stereo not shown) [Example 45, 6-[3-[4-(4-fluorophenyl)-1-piperazinyl]propyl]-6H-1,3-dioxolo[4,5-g][1,4]benzothiazin-7(8H)-one.dihydrochloride] | – | – | – | – | 30 ΔmmHg | – | – | –
Cc1cccc2c1NC(=O)C(CCCN1CCN(c3cccc(C(F)(F)F)c3)CC1)S2 (stereo not shown) [Example 19] | 55% | – | – | 100% | – | – | – | –
COc1ccccc1N1CCN(CCCC2Sc3ccccc3NC2=O)CC1 (stereo not shown) [Example 25, 2-[3-[4-(2-methoxyphenyl)-1-piperazinyl]propyl]-2H-1,4-benzothiazin-3(4H)-one] | 10% | 84% | – | – | 66 ΔmmHg | – | 100% | –
